Measured values published in US4891373A, “Aminopropanol derivatives of 1,4:3,6-dianhydrohexitol nitrates, processes for their preparation and their use as medicaments” (Pfizer Inc., priority 1988, dated 1990).

How the values were obtained:
[1] = Survival rate of rats after an acute coronary ligature; type: in vivo, rat
Experimental: Influence of various substances on the survival
rate of rats 60 minutes, 24 hours and 7 days after an
acute coronary ligature was determined following the
method of I. Lepran, et al., L. Szekeres, Acta
Physiologica Sci. Hungaricae 53, 190 (1979). The
substances were administered orally 5 minutes before
the acute coronary ligature.

[2] = test system: systolic blood pressure (SBP) and heart rate (HR); assay: Systolic blood pressure and heart rate following peroral administration to conscious beagle dogs; type: in vivo, beagle dog; conditions: mean ± SEM
Description: Duration of the action of various substances on the systolic blood
heart rate (HR) following peroral administration to conscious beagle

[3] = test system: cardiovascular parameters (MAP, HR, LVSP, LVEDP, dp/dtmax, TPR, PAP, SV, CO); assay: Cardiovascular actions following intravenous administration to anesthetized dogs (pentobarbital) with opened thorax and artificial respiration; type: in vivo, dog; conditions: for CO (cardiac output), change / PAP (blood pressure in the A. pulmonalis), change / SV (stroke volume), change: vs pre-value, unsigned
Description: (§1) venous administration to anesthetized dogs (pentobarbital)
(§2) with an opened thorax and artificial respiration.
as §1, §2

[4] = Tolerance of peroral dose in mice; conditions: mouse, in vivo, po
Description: Set forth below is data obtained on the compounds of Examples 17, 19 and 20 that illustrates the pharmacological action of the compounds of the present invention.

[5] = test system: T-wave increase in the ECG induced by lypressin; assay: Influence on the T-wave increase in the ECG of the anesthetized rat induced by intravenous bolus injection of lypressin; type: in vivo; conditions: p.o.
Experimental: Influence of various compounds on the T-wave
increase in the ECG of the anesthetized rat induced by
intravenous bolus injection of lypressin was determined
following the method of M. Leitold et al., Drug Res.,
36, 1454 (1986). The substances were administered
perorally 30 minutes or at various times before the […]

[6] = 60 minutes, 100.0 mg/kg orally 5 min before ligature
[7] = 24 hours, 100.0 mg/kg orally 5 min before ligature
[8] = 7 days, 100.0 mg/kg orally 5 min before ligature

| SMILES | CO (cardiac output), action of substance ([3]; 30 μg/kg i.v.) [l/M] | CO (cardiac output), duration of action ([3]; 30 μg/kg i.v.) [min] | PAP (blood pressure in the A. pulmonalis), action of substance ([3]; 30 μg/kg i.v.) [mmHg] | PAP (blood pressure in the A. pulmonalis), duration of action ([3]; 30 μg/kg i.v.) [min] | SV (stroke volume), duration of action ([3]; 30 μg/kg i.v.) [min] | CO (cardiac output), change ([3]; 30 μg/kg i.v.) [l/M] | PAP (blood pressure in the A. pulmonalis), change ([3]; 30 μg/kg i.v.) [mmHg] | SV (stroke volume), change ([3]; 30 μg/kg i.v.) [mL/s] | CO (cardiac output), duration of action ([3]; 300 μg/kg i.v.) [min] | PAP (blood pressure in the A. pulmonalis), duration of action ([3]; 300 μg/kg i.v.) [min] | SV (stroke volume), action of substance ([3]; 300 μg/kg i.v.) [mL/s] | SV (stroke volume), duration of action ([3]; 300 μg/kg i.v.) [min] | PAP (blood pressure in the A. pulmonalis), change ([3]; 300 μg/kg i.v.) [mmHg] | SV (stroke volume), change ([3]; 300 μg/kg i.v.) [mL/s] | CO (cardiac output), duration of action ([3]; 3000 μg/kg i.v.) [min] | PAP (blood pressure in the A. pulmonalis), duration of action ([3]; 3000 μg/kg i.v.) [min] | SV (stroke volume), duration of action ([3]; 3000 μg/kg i.v.) [min] | CO (cardiac output), change ([3]; 3000 μg/kg i.v.) [l/m] | Tolerated peroral dose [4] [mg/kg] | Duration of action at the ED50 dose [5] [h] | also measured |
| --- | --- | --- | --- | --- | --- | --- | --- | --- | --- | --- | --- | --- | --- | --- | --- | --- | --- | --- | --- | --- | --- |
| COc1ccccc1N1CCN(CC(O)CO[C@H]2CO[C@H]3[C@@H]2OC[C@H]3O[N+](=O)[O-])CC1 (stereo partly drawn) [Example 17, 2-O-<3-[4-(2-Methoxyphenyl)-piperazinyl]-2-hydroxypropyl>-isosorbide-5-nitrate] | 0.93 ± 0.07 | 6 ± 3 | 17.0 ± 4 | 2 ± 0.3 | 2 ± 0.2 | 0.07 ± 0.04 | 1.3 ± 0.5 | 0.4 ± 0.2 | 73 ± 40 | 1.4 ± 0.1 | 3.7 ± 0.4 | 74 ± 43 | 1.5 ± 0.5 | 0.7 ± 0.3 | > 75 | 2 ± 0.6 | > 75 | 0.450 ± 0.025 | 500 | 2 | Number of rats surviving after an acute coronary ligature ([1]; 60 minutes, 30.0 mg/kg orally 5 min before ligature): 17/20; Number of rats surviving after an acute coronary ligature ([1]; 24 hours, 30.0 mg/kg orally 5 min before ligature): 17/20; Number of rats surviving after an acute coronary ligature ([1]; 7 days, 30.0 mg/kg orally 5 min before ligature): 17/20; SBP (systolic blood pressure), action of substance ([2]; 6.0 mg/kg p.o., after 1 hour): 91 ± 6 mmHg; HR (heart rate), action of substance ([2]; 6.0 mg/kg p.o., after 2 hours): 110 ± 16 Bts/M; SBP (systolic blood pressure), action of substance ([2]; 6.0 mg/kg p.o., after 2 hours): 89 ± 4 mmHg; HR (heart rate), action of substance ([2]; 6.0 mg/kg p.o., after 3 hours): 89 ± 8 Bts/M; SBP (systolic blood pressure), action of substance ([2]; 6.0 mg/kg p.o., after 3 hours): 97 ± 5 mmHg; HR (heart rate), action of substance ([2]; 6.0 mg/kg p.o., after 6 hours): 89 ± 5 Bts/M; HR (heart rate), action of substance ([2]; 6.0 mg/kg p.o., after 8 hours): 85 ± 7 Bts/M; SV (stroke volume), action of substance ([3]; 3000 μg/kg i.v.): 3.0 ± 0.6 mL/s; PAP (blood pressure in the A. pulmonalis), change ([3]; 3000 μg/kg i.v.): 2.3 ± 0.8 mmHg; SV (stroke volume), change ([3]; 3000 μg/kg i.v.): 2.6 ± 0.4 mL/s |
| COc1ccccc1N1CCN(CC(O)CO[C@H]2CO[C@H]3[C@@H]2OC[C@@H]3O[N+](=O)[O-])CC1 (stereo partly drawn) [Example 20, 5-O-<3-[4-(2-Methoxyphenyl)-piperazinyl]-2-hydroxypropyl>-isoidide-2-nitrat] | 0.81 ± 0.3 | 12 ± 6 | 16.0 ± 1 | 11 ± 6 | 12 ± 6 | 0.38 ± 0.1 | 0.4 ± 0.2 | 2.3 ± 1 | 35 ± 23 | 14 ± 13 | 7.2 ± 2.5 | 33 ± 23 | 0.7 ± 0.3 | 0.5 ± 2.9 | 3 ± 0.4 | > 177 | 4 ± 0.0 | 0.87 ± 0.7 | 500 | 4 | Number of rats surviving after an acute coronary ligature [1, 6]: 14/20; Number of rats surviving after an acute coronary ligature [1, 7]: 14/20; Number of rats surviving after an acute coronary ligature [1, 8]: 14/20; HR (heart rate), action of substance ([2]; 5.0 mg/kg p.o., after 1 hour): 98 ± 7 Bts/M; SBP (systolic blood pressure), action of substance ([2]; 5.0 mg/kg p.o., after 1 hour): 97 ± 8 mmHg; SBP (systolic blood pressure), action of substance ([2]; 5.0 mg/kg p.o., after 2 hours): 95 ± 6 mmHg; HR (heart rate), action of substance ([2]; 5.0 mg/kg p.o., after 3 hours): 82 ± 7 Bts/M; SBP (systolic blood pressure), action of substance ([2]; 5.0 mg/kg p.o., after 3 hours): 106 ± 4 mmHg; HR (heart rate), action of substance ([2]; 5.0 mg/kg p.o., after 6 hours): 78 ± 6 Bts/M; HR (heart rate), action of substance ([2]; 5.0 mg/kg p.o., after 8 hours): 77 ± 6 Bts/M; SV (stroke volume), action of substance ([3]; 30 μg/kg i.v.): 7.5 ± 2 mL/s; CO (cardiac output), change ([3]; 300 μg/kg i.v.): 0.21 ± 0.6 l/M; PAP (blood pressure in the A. pulmonalis), change ([3]; 3000 μg/kg i.v.): 1.1 ± 0.3 mmHg |
| COc1ccccc1N1CCN(CC(O)CO[C@@H]2CO[C@H]3[C@@H]2OC[C@H]3O[N+](=O)[O-])CC1 (stereo partly drawn) [Example 19, 5-O-<3-[4-(2-Methoxyphenyl)-piperazinyl]-2-hydroxypropyl>-isomannide-2-nitrate] |  |  |  |  |  |  |  |  |  |  |  |  |  |  |  |  |  |  | 500 | 4 | Number of rats surviving after an acute coronary ligature [1, 6]: 15/20; Number of rats surviving after an acute coronary ligature [1, 7]: 15/20; Number of rats surviving after an acute coronary ligature [1, 8]: 15/20; HR (heart rate), action of substance ([2]; 5.0 mg/kg p.o., after 2 hours): 90 ± 5 Bts/M; HR (heart rate), action of substance ([2]; 5.0 mg/kg p.o., after 3 hours): 85 ± 5 Bts/M; SBP (systolic blood pressure), action of substance ([2]; 5.0 mg/kg p.o., after 3 hours): 118 ± 6 mmHg; HR (heart rate), action of substance ([2]; 5.0 mg/kg p.o., after 6 hours): 86 ± 5 Bts/M |
